Read-outs that look alike come from different tables or passages of the source.
How the values were obtained:
murine Th17 cells = test: Cytokine response by in vitro-polarized murine Th17 cells stimulated with PMA/ionomycin; type: cell-based; conditions: Mus musculus, PMA/ionomycin 20 h
Experimental: Purification of murine CD4+ T cells: To isolate mouse splenocytes, freshly isolated mouse spleens were minced in culture media (RPMI 1640 (Lonza, Allendale, N.J.) containing 10% (v/v) charcoal-dextran filtered, heat inactivated FBS (Omega Scientific, Tarzana, Calif.), 0.05 mM 2-Mercaptoethanol (Sigma-Aldrich, St. Louis, Mo.), and 1×Pen/Strep Amphotericin B (Lonza)), using a sterile razor blade then pushed through 70 and 40 μm cell strainers. Cells were resuspended in ACK Lysing Buffer (Lonza) for 3 minutes at room temperature to lyse the red blood cells. CD4+ T cells were isolated from the mouse splenocytes using the EasySep negative selection mouse CD4+ T cell isolation kit (Stemcell, Vancouver, Canada) according to manufacturer's instructions briefly as follows: Unwanted cells were specifically labeled by incubation with a cocktail of biotinylated antibodies directed against cell surface antigens on mouse cells of hematopoietic origin (CD8a, CD11b, CD11c, CD19, CD45R/B220, CD49b, TCRγ/δ, and TER119). Labeled cells were then magnetically removed using streptavidin-bound magnetic beads, leaving the desired CD4+ T cells.
In vitro mouse Th17 differentiation: Mouse CD4+ T cells isolated as above were polarized into Th17 cells as follows: Tissue culture-treated 100 mm plates (Corning, Corning, N.Y.) were coated with 2 μg/ml purified NA/LE hamster anti-mouse CD3e clone 145-2C11 antibody (BD Biosciences, San Jose, Calif.) overnight at 4° C. Each coated plate was seeded with ˜2-3 e6 mouse CD4+ T cells in polarization media consisting of culture media (RPMI 1640/FBS/2-Mercaptoethanol/Pen/Strep Amphotericin B) supplemented with: recombinant mouse IL-6 (50 ng/ml), […] (50 ng/ml), IL-23 (50 ng/ml)(R&D Systems, Minneapolis, Minn.), recombinant human TGF1β (5 ng/ml) (Cell Signaling Technology, Danvers, Mass.), anti-CD28 clone 37.51 (10 μg/ml)(BD Biosciences, San Jose, Calif.), anti-IL-2 clone JES6-1A12 (1 μg/ml), anti-IL-4 clone 11B11 (10 μg/ml), and anti-IFNγ clone XMG1.2 (10 μg/ml). All recombinant mouse cytokines and anti-mouse neutralizing antibodies were purchased from eBioscience (San Diego, Calif.) unless otherwise specified. Cells were incubated in the above Polarization media for 3 d at 37° C. in a humidified atmosphere at 5% CO2. After 3 d, cells were re-polarized as above, except for the following cytokine and neutralizing antibody concentration changes: recombinant mouse IL-6 (40 ng/ml), recombinant human TGFβ (1 ng/ml), anti-CD28 clone 37.51 (5 μg/ml), anti-IL-2 clone JES6-1A12 (0.5 μg/ml), anti-IL-4 clone 11B11 (5 μg/ml), and anti-IFNγ clone XMG1.2 (5 μg/ml). Cells were maintained under the above conditions for an additional 3 d at 37° C. in humidified atmosphere at 5% CO2 for a total of 6 days of polarization.
Inhibition of cytokine response by in vitro-polarized murine Th17 cells stimulated with PMA/ionomycin: Murine Th17 cells, polarized as described above, were seeded at 2e6 cells/ml in culture media. Cells were pre-treated with test compounds (10 μM down by ⅕ in a 4-point serial dilution series) for 1 h at 37° C. in a humidified atmosphere at 5% CO2. Cells were then stimulated with 50 ng/ml phorbol 12-myristate 13-acetate (PMA)(Sigma-Aldrich, St. Louis, Mo.)+1 μg/ml ionomycin (Life Technologies, Grand Island, N.Y.) for 20 h at 37° C. in a humidified atmosphere at 5% CO2. Supernatant was collected and analyzed using Bio-Plex Pro Mouse Cytokine Th17 Panel A 6-Plex and the Bio-Plex Pro Mouse Cytokine Th17 Panel B 8-Plex (Bio-Rad Laboratories, Hercules, Calif.) as per manufacturer's protocols. Magnetic beads were read on the Bio-Plex MAGPIX multiplex reader instrument using the accompanying xPONENT 4.2 acquisition software (Bio-Rad Laboratories, Hercules, Calif.). Data were analyzed via the Bio-Plex Manager software v6.1 (Bio-Rad Laboratories).

[1] = system: primary asthmatic human bronchial epithelial cells; test: IL-17A- or IL-17F-mediated cytokine response by primary asthmatic human bronchial epithelial cells; type: cell-based; conditions: Epithelial cell, 48 h, 48 h
Experimental: The virally immortalized, normal human bronchial epithelial cell line BEAS-2B was purchased from ATCC (Manassas, Va.). Primary bronchial epithelial cells isolated from a patient diagnosed with asthma were obtained from Lonza (Allendale, N.J.). Both cells were maintained in complete Bronchial Epithelial Cell Growth Medium (BEGM) (Lonza). Cells were seeded at 1e5 cells/ml and incubated at 37° C. in a humidified atmosphere at 5% CO2 overnight to adhere. Cells were pre-treated with test compounds (10 μM down by ⅕ in a 3- or 4-point serial dilution series) for 1 h at 37° C. in a humidified atmosphere at 5% CO2. DMSO at a final concentration of 0.1% served as the non-inhibited control. Budesonide (Selleck Chemicals, Houston, Tex.), a clinically approved glucocorticoid steroid for the treatment of asthma, was tested as a positive control at 0.25 μM. Cells were stimulated with 50 ng/ml of either human recombinant IL-17A or IL-17F (eBioscience, San Diego, Calif.), for 48 h. Supernatant was then collected and analyzed for cytokine concentrations using the Bio-Plex Pro Human Cytokine 17-Plex Panel (Bio-Rad Laboratories, Hercules, Calif.) according to the manufacturer's instructions. Magnetic beads were measured on the Bio-Plex MAGPIX multiplex reader instrument using the accompanying xPONENT 4.2 acquisition software (Bio-Rad Laboratories). Data were analyzed via the Bio-Plex Manager software v6.1 (Bio-Rad Laboratories). For the primary asthmatic bronchial epithelial cells, five (+IL-17F) to thirteen (+IL-17A) cytokines were in range of detection under the conditions used. […] Select cytokines were analyzed for comparison using the BEAS-2B cell line.
BLQ: cytokine levels were below limits of quantitation.

[2] = read-out: EC50 (nM) of cytokine reduction, IFNγ
[3] = read-out: EC50 (nM) of cytokine reduction, IL-6
[4] = read-out: EC50 (nM) of cytokine reduction, IL-10
[5] = read-out: EC50 (nM) of cytokine reduction, IL-17A
[6] = read-out: EC50 (nM) of cytokine reduction, IL-21
[7] = read-out: EC50 (nM) of cytokine reduction, IL-22
[8] = read-out: EC50 (nM) of cytokine reduction, IL-23p19
[9] = +50 ng/ml IL-17A, read-out: EC50 values (μM), G-CSF
[10] = +50 ng/ml IL-17A, read-out: EC50 values (μM), GM-CSF
[11] = +50 ng/ml IL-17A, read-out: EC50 values (μM), IFN-γ
[12] = +50 ng/ml IL-17A, read-out: EC50 values (μM), IL-1β
[13] = +50 ng/ml IL-17A, read-out: EC50 values (μM), IL-2
[14] = +50 ng/ml IL-17A, read-out: EC50 values (μM), IL-6
[15] = +50 ng/ml IL-17A, read-out: EC50 values (μM), IL-8
[16] = +50 ng/ml IL-17A, read-out: EC50 values (μM), MCP-1
[17] = +50 ng/ml IL-17F, read-out: EC50 values (μM), G-CSF
[18] = +50 ng/ml IL-17F, read-out: EC50 values (μM), IFN-γ
[19] = +50 ng/ml IL-17F, read-out: EC50 values (μM), IL-1β
[20] = +50 ng/ml IL-17F, read-out: EC50 values (μM), IL-6
[21] = +50 ng/ml IL-17F, read-out: EC50 values (μM), IL-8

Row | EC50 (murine Th17 cells; [2]) [nM] | EC50 (murine Th17 cells; [3]) [nM] | EC50 (murine Th17 cells; [4]) [nM] | EC50 (murine Th17 cells; [5]) [nM] | EC50 (murine Th17 cells; [6]) [nM] | EC50 (murine Th17 cells; [7]) [nM] | EC50 (murine Th17 cells; [8]) [nM] | EC50 [1, 9] [µM] | EC50 [1, 10] [µM] | EC50 [1, 11] [µM] | EC50 [1, 12] [µM] | EC50 [1, 13] [µM] | EC50 [1, 14] [µM] | EC50 [1, 15] [µM] | EC50 [1, 16] [µM] | EC50 [1, 17] [µM] | EC50 [1, 18] [µM] | EC50 [1, 19] [µM] | EC50 [1, 20] [µM] | EC50 [1, 21] [µM] | SMILES
1 | 4270 | 1740 | 577 | > 10000 | 4850 | 2630 | 480 | – | – | – | – | – | – | – | – | – | – | – | – | – | CCOc1cc(C(=O)N2CCC(N3CCCC3)CC2)ccc1Nc1cc2c(cn1)N(C)C(=O)c1ccccc1N2C [Compound 46, 3-(2-Ethoxy-4-(4-(pyrrolidin-1-yl)piperidine-1-carbonyl)phenylamino)-5,11-dimethyl-5H-benzo[e]pyrido[3,4-b][1,4]diazepin-10(11H)-one]
2 | 6930 | 2920 | 2150 | > 10000 | 3990 | 2120 | 840 | – | – | – | – | – | – | – | – | – | – | – | – | – | CCOc1cc(C(=O)NCC2CC2)ccc1Nc1cc2c(cn1)N(C)C(=O)c1ccccc1N2C [Compound 57]
3 | > 10000 | 1600 | 1090 | > 10000 | 4240 | 2980 | 800 | 1.66 | 3.38 | > 10 | 1.26 | 10.5 | 0.5 | 0.51 | 6.25 | 0.91 | 0.6 | 0.79 | 0.38 | 0.52 | CCOc1cc(C(=O)N2CCC(N3CCN(C)CC3)CC2)ccc1Nc1cc2c(cn1)N(C)C(=O)c1ccccc1N2C [Compound 61]
4 | 8540 | 2480 | 1820 | > 10000 | 4980 | 5010 | 1340 | – | – | – | – | – | – | – | – | – | – | – | – | – | CCOc1cc(C(=O)N2CCNCC2)ccc1Nc1cc2c(cn1)N(C)C(=O)c1ccccc1N2C [Compound 62]
5 | > 10000 | 2380 | 979 | > 10000 | 8280 | 5080 | 940 | 2.68 | 4.06 | > 10 | 1.57 | > 10 | 0.56 | 0.63 | > 10 | 1.77 | 1.98 | 1.57 | 0.59 | 1.27 | CCOc1cc(C(=O)N2CCC(N3CCN(C)CC3)CC2)ccc1Nc1cc2c(cn1)N(C)C(=O)c1occc1N2C [Compound 65]
6 | 1770 | 1170 | 373 | 4980 | 2110 | 880 | 360 | 0.66 | 1.39 | > 10 | 0.95 | 5.31 | 0.16 | 0.15 | 6.1 | 0.21 | 0.34 | 0.38 | 0.34 | 0.28 | CCOc1cc(C(=O)N2CC[C@@H](N(C)C)C2)ccc1Nc1cc2c(cn1)N(C)C(=O)c1ccccc1N2C [Compound 115]

From patent US20170008888A1 (KYORIN PHARMACEUTICAL CO., LTD., priority 2014, published 2017)
